Experimental data as given in publication PMC3022373 (Journal of medicinal chemistry, 2010).

Target: T1, hiCE (Homo sapiens, UniProt O00748)
T1 sequence (O00748 27-559): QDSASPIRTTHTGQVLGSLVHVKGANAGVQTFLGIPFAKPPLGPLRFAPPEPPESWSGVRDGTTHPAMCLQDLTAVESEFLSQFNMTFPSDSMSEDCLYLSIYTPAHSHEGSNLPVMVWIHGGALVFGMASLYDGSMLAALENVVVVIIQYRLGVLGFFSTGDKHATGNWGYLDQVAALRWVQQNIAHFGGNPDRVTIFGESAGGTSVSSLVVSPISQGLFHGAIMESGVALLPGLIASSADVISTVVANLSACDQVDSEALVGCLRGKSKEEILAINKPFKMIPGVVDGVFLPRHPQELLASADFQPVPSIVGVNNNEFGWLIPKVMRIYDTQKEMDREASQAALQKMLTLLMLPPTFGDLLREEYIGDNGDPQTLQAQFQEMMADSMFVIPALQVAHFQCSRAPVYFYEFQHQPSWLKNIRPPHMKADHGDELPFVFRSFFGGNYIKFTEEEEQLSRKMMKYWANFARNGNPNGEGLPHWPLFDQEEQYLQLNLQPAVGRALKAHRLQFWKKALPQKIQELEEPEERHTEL
Assay type: biochemical

| Structure (SMILES) | selectivity in favor of hiCE inhibition versus hCE1 |
| --- | --- |
| O=C(C(=O)c1ccccn1)c1cccc(NC(=O)c2ccc(Cl)cc2Cl)c1 [15d] | ≥ 100 fold |
| O=C(Nc1cccc(C(=O)C(=O)c2ccccn2)c1)c1ccc(C(F)(F)F)cc1 [15f] | ≥ 100 fold |
